Here are results for 14 compounds from ChEMBL document CHEMBL5291721, “A preclinical secondary pharmacology resource illuminates target-adverse drug reaction associations of marketed drugs” (Nat Commun, 2023).

The structures appear in SMILES notation. Some results are limits rather than exact numbers.

For experiment [1], the target named is Neuronal acetylcholine receptor subunit alpha-4 (Homo sapiens, UniProt P43681).
In a further experiment the target is Histamine H2 receptor (Homo sapiens, UniProt P25021). It is filed as functional, cell-based.
Chain of Histamine H2 receptor (P25021 whole entry): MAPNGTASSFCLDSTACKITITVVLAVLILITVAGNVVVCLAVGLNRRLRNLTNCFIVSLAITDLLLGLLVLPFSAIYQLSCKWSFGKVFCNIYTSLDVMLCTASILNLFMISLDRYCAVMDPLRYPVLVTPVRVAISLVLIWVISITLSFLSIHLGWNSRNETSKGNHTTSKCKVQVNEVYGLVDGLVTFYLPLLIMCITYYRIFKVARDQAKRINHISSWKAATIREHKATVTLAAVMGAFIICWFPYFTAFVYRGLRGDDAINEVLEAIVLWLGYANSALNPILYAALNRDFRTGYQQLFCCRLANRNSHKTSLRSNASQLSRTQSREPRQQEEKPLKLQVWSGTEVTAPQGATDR
In the next experiment the target is Melanocortin receptor 3 (Homo sapiens, UniProt P41968).
Chain of Melanocortin receptor 3 (P41968 whole entry): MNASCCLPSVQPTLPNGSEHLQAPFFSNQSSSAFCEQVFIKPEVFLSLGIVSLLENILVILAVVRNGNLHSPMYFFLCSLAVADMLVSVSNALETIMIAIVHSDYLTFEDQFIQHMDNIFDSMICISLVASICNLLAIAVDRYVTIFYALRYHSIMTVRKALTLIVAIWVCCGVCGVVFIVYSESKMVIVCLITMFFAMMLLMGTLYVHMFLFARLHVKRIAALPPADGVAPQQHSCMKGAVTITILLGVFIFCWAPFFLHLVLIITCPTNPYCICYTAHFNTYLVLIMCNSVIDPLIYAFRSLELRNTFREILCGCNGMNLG
The target of experiment [2] is T1, 5-hydroxytryptamine receptor 3A (Homo sapiens, UniProt P46098).
T1 sequence (P46098 whole entry): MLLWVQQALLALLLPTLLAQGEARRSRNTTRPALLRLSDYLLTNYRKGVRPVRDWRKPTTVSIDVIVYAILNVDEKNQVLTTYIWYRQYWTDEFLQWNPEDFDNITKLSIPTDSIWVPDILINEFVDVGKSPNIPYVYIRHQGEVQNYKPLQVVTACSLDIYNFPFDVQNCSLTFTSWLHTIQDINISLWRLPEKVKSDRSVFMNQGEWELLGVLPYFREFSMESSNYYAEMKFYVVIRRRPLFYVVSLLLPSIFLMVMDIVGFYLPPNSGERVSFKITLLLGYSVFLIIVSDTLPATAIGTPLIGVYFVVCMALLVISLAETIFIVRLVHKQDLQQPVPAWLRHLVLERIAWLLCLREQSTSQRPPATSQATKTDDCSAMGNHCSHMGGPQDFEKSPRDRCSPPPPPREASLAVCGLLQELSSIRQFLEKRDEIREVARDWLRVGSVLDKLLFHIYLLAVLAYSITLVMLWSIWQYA
Type of experiment: functional.

A further experiment concerns the target T2, Adenosine receptor A1 (Homo sapiens, UniProt P30542).
T2 sequence (P30542 whole entry): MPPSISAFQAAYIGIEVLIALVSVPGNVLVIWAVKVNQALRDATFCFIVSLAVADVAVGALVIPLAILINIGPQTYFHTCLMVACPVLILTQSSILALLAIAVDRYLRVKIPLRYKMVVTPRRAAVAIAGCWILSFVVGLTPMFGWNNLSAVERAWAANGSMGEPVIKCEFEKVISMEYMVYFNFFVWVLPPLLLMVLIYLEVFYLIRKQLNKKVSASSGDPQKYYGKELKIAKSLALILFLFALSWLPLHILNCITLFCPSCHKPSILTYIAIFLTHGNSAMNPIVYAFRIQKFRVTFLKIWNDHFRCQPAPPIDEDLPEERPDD

In another experiment the target is Vasopressin V1a receptor (Homo sapiens, UniProt P37288).
Chain of Vasopressin V1a receptor (P37288 whole entry): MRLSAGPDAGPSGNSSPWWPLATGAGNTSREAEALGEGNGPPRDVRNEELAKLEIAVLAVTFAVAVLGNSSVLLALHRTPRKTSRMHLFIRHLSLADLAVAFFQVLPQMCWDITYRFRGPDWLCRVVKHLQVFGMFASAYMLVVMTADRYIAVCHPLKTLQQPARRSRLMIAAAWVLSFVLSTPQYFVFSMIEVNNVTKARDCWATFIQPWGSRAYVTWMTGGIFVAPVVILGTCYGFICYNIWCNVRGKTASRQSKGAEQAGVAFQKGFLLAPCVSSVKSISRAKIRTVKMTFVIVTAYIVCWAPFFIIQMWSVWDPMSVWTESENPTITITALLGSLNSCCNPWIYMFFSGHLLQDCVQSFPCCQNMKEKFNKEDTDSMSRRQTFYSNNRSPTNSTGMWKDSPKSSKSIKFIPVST
Experiment [3] has as its target T3, Alpha-2A adrenergic receptor (Homo sapiens, UniProt P08913).
T3 sequence (P08913 whole entry): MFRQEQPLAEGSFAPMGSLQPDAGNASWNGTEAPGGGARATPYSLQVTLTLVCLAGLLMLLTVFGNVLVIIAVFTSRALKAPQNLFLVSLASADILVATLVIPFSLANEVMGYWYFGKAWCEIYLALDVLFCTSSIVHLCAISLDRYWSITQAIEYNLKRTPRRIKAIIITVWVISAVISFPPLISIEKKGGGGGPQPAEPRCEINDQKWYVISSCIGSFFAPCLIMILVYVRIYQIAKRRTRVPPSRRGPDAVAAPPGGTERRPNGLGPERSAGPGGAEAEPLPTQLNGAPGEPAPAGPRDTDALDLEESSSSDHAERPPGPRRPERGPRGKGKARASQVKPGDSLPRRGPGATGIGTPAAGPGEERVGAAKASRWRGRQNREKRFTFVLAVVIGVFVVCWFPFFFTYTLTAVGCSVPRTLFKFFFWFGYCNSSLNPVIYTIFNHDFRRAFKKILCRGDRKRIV
Type of experiment: functional, cell-based.

For experiment [4], the target named is T4, Alpha-1A adrenergic receptor (Homo sapiens, UniProt P35348).
T4 sequence (P35348 whole entry): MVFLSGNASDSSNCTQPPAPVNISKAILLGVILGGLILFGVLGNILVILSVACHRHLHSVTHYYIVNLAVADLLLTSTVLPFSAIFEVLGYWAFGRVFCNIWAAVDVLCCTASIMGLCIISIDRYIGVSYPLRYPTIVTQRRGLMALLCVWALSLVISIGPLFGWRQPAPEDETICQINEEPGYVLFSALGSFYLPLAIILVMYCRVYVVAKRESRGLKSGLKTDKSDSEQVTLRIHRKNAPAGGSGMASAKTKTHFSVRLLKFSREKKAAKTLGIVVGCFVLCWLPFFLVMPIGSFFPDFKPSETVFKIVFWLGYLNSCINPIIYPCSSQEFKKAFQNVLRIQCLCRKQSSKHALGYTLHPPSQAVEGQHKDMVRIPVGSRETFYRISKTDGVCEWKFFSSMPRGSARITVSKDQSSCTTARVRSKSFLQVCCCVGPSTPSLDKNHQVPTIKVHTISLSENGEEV
Type of experiment: functional, cell-based.

The target in experiment [5] is cGMP-inhibited 3',5'-cyclic phosphodiesterase 3A (Homo sapiens, UniProt Q14432). Type of experiment: functional.
Chain of cGMP-inhibited 3',5'-cyclic phosphodiesterase 3A (Q14432 whole entry): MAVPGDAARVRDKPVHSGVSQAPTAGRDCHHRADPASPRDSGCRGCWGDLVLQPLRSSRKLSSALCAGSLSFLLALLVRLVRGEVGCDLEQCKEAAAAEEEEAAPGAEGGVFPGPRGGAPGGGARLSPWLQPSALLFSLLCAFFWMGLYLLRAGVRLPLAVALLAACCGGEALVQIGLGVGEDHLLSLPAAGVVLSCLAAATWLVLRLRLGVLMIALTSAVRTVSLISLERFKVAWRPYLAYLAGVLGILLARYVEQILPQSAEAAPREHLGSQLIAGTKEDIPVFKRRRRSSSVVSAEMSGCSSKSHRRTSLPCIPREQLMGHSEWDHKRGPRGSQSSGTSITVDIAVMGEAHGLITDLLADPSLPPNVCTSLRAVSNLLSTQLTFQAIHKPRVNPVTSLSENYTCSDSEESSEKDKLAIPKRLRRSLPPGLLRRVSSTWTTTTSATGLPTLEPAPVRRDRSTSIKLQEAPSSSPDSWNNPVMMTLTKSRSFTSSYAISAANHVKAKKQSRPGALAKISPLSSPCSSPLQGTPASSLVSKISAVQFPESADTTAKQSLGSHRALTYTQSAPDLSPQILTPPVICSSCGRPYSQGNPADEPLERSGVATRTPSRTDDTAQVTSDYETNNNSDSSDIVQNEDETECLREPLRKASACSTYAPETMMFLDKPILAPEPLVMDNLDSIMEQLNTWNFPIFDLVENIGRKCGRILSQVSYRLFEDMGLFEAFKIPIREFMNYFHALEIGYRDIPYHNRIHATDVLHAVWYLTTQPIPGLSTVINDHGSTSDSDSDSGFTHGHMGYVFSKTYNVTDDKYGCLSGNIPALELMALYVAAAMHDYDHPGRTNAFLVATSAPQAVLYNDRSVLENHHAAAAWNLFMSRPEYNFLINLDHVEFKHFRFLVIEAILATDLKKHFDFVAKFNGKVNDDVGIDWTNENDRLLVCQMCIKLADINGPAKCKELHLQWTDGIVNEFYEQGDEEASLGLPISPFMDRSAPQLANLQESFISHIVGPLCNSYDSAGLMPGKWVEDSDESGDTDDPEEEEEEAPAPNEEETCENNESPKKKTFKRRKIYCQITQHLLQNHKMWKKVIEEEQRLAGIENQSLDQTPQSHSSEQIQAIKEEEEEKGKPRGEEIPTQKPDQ
In experiment [6] the target is Glutamate receptor ionotropic, NMDA 1 (Rattus norvegicus, UniProt P35439).
The target in another experiment is T5, Endothelin-1 receptor (Homo sapiens, UniProt P25101).
T5 sequence (P25101 whole entry): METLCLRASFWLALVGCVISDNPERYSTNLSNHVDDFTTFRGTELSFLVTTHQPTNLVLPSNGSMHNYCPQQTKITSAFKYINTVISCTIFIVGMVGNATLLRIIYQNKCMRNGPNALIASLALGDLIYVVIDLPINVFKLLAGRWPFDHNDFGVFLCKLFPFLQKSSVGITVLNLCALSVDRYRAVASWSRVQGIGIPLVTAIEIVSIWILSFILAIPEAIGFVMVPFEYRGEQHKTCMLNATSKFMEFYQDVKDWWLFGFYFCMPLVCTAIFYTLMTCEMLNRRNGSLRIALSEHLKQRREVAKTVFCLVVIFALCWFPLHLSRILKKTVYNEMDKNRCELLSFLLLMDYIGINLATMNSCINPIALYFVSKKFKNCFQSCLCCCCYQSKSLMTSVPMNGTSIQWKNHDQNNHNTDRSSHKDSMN

Experiment [7] addresses Beta-2 adrenergic receptor (Homo sapiens, UniProt P07550).
Also: assay procedure not described here.

Chain of Neuronal acetylcholine receptor subunit alpha-4 (P43681 whole entry): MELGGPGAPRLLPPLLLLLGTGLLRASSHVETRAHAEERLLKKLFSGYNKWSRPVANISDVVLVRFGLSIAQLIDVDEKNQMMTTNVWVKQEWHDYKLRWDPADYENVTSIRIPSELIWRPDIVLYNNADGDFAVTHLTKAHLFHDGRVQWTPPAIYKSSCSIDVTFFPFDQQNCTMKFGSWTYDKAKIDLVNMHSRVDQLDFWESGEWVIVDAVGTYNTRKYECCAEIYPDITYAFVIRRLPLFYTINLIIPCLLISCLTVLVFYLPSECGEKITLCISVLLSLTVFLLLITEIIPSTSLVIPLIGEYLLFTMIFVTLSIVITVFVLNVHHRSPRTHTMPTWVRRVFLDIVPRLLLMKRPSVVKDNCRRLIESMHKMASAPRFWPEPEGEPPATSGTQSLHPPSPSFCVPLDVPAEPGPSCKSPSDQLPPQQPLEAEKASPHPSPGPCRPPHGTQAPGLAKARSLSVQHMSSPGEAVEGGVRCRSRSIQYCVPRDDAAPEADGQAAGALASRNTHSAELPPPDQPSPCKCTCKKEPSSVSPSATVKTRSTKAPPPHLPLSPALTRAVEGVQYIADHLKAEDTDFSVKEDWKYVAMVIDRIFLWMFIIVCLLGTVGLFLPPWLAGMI
Chain of Beta-2 adrenergic receptor (P07550 whole entry): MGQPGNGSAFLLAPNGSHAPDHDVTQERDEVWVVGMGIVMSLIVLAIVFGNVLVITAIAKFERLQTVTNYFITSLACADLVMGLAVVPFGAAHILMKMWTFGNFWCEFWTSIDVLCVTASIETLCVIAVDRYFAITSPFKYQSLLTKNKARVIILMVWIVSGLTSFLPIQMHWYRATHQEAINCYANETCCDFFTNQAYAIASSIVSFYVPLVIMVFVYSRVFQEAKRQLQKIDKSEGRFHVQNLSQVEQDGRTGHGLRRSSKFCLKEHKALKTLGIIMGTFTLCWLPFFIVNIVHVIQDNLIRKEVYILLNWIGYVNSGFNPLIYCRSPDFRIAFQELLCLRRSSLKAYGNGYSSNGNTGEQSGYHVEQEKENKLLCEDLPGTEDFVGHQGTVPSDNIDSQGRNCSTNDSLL

Broadly, the AC50 is the concentration giving half of the maximal activity seen. As to `C[C@@H](NCCCc1cccc(C(F)(F)F)c1)c1cccc2ccccc12`, the AC50 was more than 1 µM in experiment [1]; more than 30 µM at Histamine H2 receptor; 13 µM on Melanocortin receptor 3; more than 30 µM in [2]; more than 30 µM at Adenosine receptor A1; more than 30 µM on Vasopressin V1a receptor. The AC50 (in experiment [3]; in experiment [4]; in [5]; in [6]; at Endothelin-1 receptor) was more than 30 µM throughout.
On to `OC[C@H]1O[C@@](CO)(O[C@H]2O[C@H](CO)[C@@H](O)[C@H](O)[C@H]2O)[C@@H](O)[C@@H]1O` [SUCROSE], for which the AC50 (in experiment [1]; at Histamine H2 receptor; at Melanocortin receptor 3; in [2]; on Adenosine receptor A1; on Vasopressin V1a receptor) was more than 30 µM in each case. Besides, the AC50 (in experiment [3]; in experiment [4]; in experiment [5]; in [6]; at Endothelin-1 receptor) was more than 30 µM in each case.
As for `COc1cc2nccc(Oc3ccc(NC(=O)C4(C(=O)Nc5ccc(F)cc5)CC4)cc3)c2cc1OC` [CABOZANTINIB], the AC50 in experiment [1] was more than 30 µM; on Melanocortin receptor 3, more than 30 µM; in [2], more than 30 µM; at Adenosine receptor A1, more than 30 µM; on Vasopressin V1a receptor, more than 30 µM; in [3], 19 µM. For the same compound, the half-maximal activity concentration (AC50) (in [4]; in experiment [5]; on Endothelin-1 receptor) was more than 30 µM throughout.
Turning to `CC(S)C(=O)NCC(=O)O` (configuration not stated) [TIOPRONIN], the AC50 (in [1]; at Melanocortin receptor 3; in experiment [2]; on Adenosine receptor A1; on Vasopressin V1a receptor; in experiment [3]) was more than 30 µM each time. For the same compound, the AC50 (in [4]; in experiment [5]; at Endothelin-1 receptor) was more than 30 µM throughout.
For the compound `CC(C)(C)NCC(O)c1cc(O)cc(O)c1` (configuration not stated) [TERBUTALINE], the AC50 (in [1]; at Melanocortin receptor 3; on Adenosine receptor A1; on Vasopressin V1a receptor; at Endothelin-1 receptor) was more than 30 µM in each case.
Take `CCN(CC)CCNC(=O)c1c(C)[nH]c(/C=C2\C(=O)Nc3ccc(F)cc32)c1C` [SUNITINIB]: the AC50 in experiment [1] was 7.3 µM; on Histamine H2 receptor, more than 30 µM; on Melanocortin receptor 3, 7.8 µM; on Adenosine receptor A1, 6.4 µM; in experiment [7] it was 8 µM; at Vasopressin V1a receptor, more than 10 µM. The AC50 in experiment [3] was 24 µM; in experiment [5] it was 18 µM; in [6] it was more than 30 µM; on Endothelin-1 receptor it was 8.3 µM.
Consider `CCN1CCN(Cc2ccc(Nc3ncc(F)c(-c4cc(F)c5nc(C)n(C(C)C)c5c4)n3)nc2)CC1` [ABEMACICLIB], for which the half-maximal activity concentration (AC50) (in [1]; on Melanocortin receptor 3; in experiment [2]; on Adenosine receptor A1; on Vasopressin V1a receptor; in experiment [3]) was more than 30 µM throughout. The AC50 (in [4]; in experiment [5]; at Endothelin-1 receptor) was more than 30 µM throughout.
Take `CN(CC1(C)CCCO1)S(=O)(=O)c1ccc(Cl)c(S(N)(=O)=O)c1` (configuration not stated) [MEFRUSIDE]: the AC50 (on Histamine H2 receptor; in [2]; in experiment [3]; in experiment [4]; in [5]; in experiment [6]) was more than 30 µM throughout.
On to `C#C[C@]1(O)CC[C@H]2[C@@H]3CCC4=CC(=O)CC[C@@H]4[C@H]3C(=C)C[C@@]21CC` [ETONOGESTREL], for which the AC50 (on Histamine H2 receptor; in experiment [2]; in experiment [3]; in experiment [4]; in experiment [5]; in experiment [6]) was more than 30 µM each time.
For `CC(=O)O[C@]1(C(C)=O)CC[C@H]2[C@@H]3C=C(C)C4=CC(=O)CC[C@@H]4[C@H]3CC[C@@]21C` [NOMEGESTROL ACETATE], the AC50 (in experiment [1]; at Histamine H2 receptor; on Melanocortin receptor 3; in experiment [2]; in experiment [3]; in experiment [4]) was more than 30 µM throughout. The AC50 was more than 30 µM in [5] and more than 10 µM in [6].
Turning to `C[C@H](CCC(=O)O)[C@H]1CC[C@H]2[C@@H]3[C@@H](O)C[C@@H]4C[C@H](O)CC[C@]4(C)[C@H]3CC[C@]12C` [URSODIOL], the AC50 (in experiment [1]; on Melanocortin receptor 3; in experiment [2]; on Adenosine receptor A1; on Vasopressin V1a receptor; in [3]) was more than 30 µM each time. The AC50 (in experiment [4]; in [5]; on Endothelin-1 receptor) was more than 30 µM in each case.
For the compound `CC(C)c1nc(N(C)S(C)(=O)=O)nc(-c2ccc(F)cc2)c1/C=C/[C@@H](O)C[C@@H](O)CC(=O)O` [ROSUVASTATIN], the AC50 (in experiment [1]; on Histamine H2 receptor; at Melanocortin receptor 3; in experiment [2]; at Adenosine receptor A1; at Vasopressin V1a receptor) was more than 30 µM in each case. For the same compound, the AC50 (in experiment [3]; in experiment [4]; in experiment [5]; in [6]; at Endothelin-1 receptor) was more than 30 µM throughout.
Turning to `CN(C)CCC[C@@]1(c2ccc(F)cc2)OCc2cc(C#N)ccc21` [ESCITALOPRAM], the AC50 (in [1]; on Melanocortin receptor 3; in experiment [2]; on Adenosine receptor A1; at Vasopressin V1a receptor; in experiment [3]) was more than 30 µM each time. Besides, the AC50 (in [5]; in [6]; on Endothelin-1 receptor) was more than 30 µM throughout.
Take `CN1C[C@H](C(=O)N[C@]2(C)O[C@@]3(O)[C@@H]4CCCN4C(=O)[C@H](Cc4ccccc4)N3C2=O)C=C2c3cccc4[nH]cc(c34)C[C@H]21` [ERGOTAMINE]: the AC50 was more than 30 µM in experiment [1]; more than 30 µM on Melanocortin receptor 3; more than 30 µM in experiment [2]; more than 30 µM on Adenosine receptor A1; more than 30 µM at Vasopressin V1a receptor; 0.3 µM in experiment [3]. Besides, the AC50 in [4] was 3.1 µM; in experiment [5] it was more than 30 µM; at Endothelin-1 receptor it was more than 30 µM.
